Laboratory results published in publication PMC6282425 (Pharmaceutical Biology, 2018).

How the values were obtained:
CYP1A2 = CYP1A2 (Homo sapiens, UniProt P05177); test: CYP1A2 inhibition in human liver microsomes (phenacetin O-deethylation); format: in vitro ADME; conditions: 100 μM bergenin, pooled HLMs
Description: (§1) All incubations were performed in triplicate, and the mean values were utilized.
(§2) There was a 3 min pre-incubation period (at 37 °C) before the reaction was initiated by adding an NADPH-generating system. The reaction was terminated by adding a 100 μL acetonitrile (10% trichloroacetic acid for CYP2A6) internal standard mix, and the solution was placed on ice. The mixture was centrifuged at 12,000 rpm for 10 min, and an aliquot (50 μL) of the supernatant was transferred for HPLC analysis. The instrument used in this study were Agilent 1260 series instrument (Palo Alto, CA, USA) with DAD and FLD detector, and the quantitative assay for the corresponding metabolites was performed as previously reported (Lang et al. [2017]; Zhang et al. [2017]).

CYP3A4 [1] = target: T1, CYP3A4 (Homo sapiens, UniProt P08684); test: CYP3A4 inhibition in human liver microsomes (testosterone 6β-hydroxylation); format: in vitro ADME
T1 sequence (P08684 whole entry): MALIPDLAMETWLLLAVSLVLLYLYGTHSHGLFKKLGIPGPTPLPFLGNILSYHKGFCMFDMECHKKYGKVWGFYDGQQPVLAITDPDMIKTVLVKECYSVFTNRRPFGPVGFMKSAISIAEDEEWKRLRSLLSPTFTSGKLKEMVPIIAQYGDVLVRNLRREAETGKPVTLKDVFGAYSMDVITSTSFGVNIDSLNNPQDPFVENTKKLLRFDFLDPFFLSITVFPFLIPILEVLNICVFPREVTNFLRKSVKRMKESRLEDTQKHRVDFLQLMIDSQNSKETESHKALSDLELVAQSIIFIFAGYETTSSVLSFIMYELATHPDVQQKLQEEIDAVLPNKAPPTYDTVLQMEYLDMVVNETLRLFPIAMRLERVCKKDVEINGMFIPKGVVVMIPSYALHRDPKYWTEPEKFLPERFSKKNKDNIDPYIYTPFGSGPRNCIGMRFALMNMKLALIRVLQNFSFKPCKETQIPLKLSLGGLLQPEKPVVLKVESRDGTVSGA
Description: as §1, §2
The enzyme kinetic parameters for the probe reaction were estimated from the best fit line using least-squares linear regression of the inverse substrate concentration versus the inverse velocity (Lineweaver–Burk plots), and the mean values were used to calculate Vmax and Km. […]

CYP2A6 = target: T2, CYP2A6 (Homo sapiens, UniProt P11509); test: CYP2A6 inhibition in human liver microsomes (coumarin 7-hydroxylation); format: in vitro ADME; conditions: 100 μM bergenin, pooled HLMs
T2 construct: from tissue; host or cells: pooled human liver microsomes
T2 sequence (P11509 1-494): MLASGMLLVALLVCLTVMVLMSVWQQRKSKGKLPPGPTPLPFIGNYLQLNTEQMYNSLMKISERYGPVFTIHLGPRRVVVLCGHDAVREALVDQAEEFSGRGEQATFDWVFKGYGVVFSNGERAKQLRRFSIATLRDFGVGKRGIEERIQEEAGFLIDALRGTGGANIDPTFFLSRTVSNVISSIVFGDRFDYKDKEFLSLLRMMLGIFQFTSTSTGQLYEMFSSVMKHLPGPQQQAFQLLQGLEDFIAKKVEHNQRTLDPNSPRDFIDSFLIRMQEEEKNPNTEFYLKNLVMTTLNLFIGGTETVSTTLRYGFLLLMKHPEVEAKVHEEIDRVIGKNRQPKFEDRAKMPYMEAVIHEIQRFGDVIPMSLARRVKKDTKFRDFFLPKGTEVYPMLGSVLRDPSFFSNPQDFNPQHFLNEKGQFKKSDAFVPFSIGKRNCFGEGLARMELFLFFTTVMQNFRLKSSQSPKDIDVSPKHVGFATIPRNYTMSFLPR
Description: as §1, §2

CYP2E1 [2] = target: T3, CYP2E1 (Homo sapiens, UniProt P05181); test: CYP2E1 inhibition in human liver microsomes (chlorzoxazone 6-hydroxylation); format: in vitro ADME
T3 construct: CYP2E1 catalyzed reactions (chlorzoxazone 6-hydroxylation) in pooled HLM; from tissue; host or cells: pooled human liver microsomes
T3 sequence (P05181 whole entry): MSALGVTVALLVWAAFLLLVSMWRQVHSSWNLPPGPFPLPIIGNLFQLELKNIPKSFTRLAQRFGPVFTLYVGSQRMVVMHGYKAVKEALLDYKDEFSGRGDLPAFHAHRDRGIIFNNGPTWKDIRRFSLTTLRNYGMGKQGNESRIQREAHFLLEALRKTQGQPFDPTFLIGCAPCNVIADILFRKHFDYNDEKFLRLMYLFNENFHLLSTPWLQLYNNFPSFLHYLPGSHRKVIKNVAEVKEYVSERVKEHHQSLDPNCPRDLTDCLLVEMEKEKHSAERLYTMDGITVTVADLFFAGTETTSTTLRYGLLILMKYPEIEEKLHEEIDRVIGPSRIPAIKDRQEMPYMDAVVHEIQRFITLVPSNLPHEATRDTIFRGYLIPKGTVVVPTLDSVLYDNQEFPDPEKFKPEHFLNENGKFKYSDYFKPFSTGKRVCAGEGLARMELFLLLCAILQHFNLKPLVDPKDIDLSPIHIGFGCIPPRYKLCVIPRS
Description: as §1, §2
(§3) The enzyme kinetic parameters for the probe reaction were estimated from the best fit line using least-squares linear regression of the inverse substrate concentration versus the inverse velocity (Lineweaver–Burk plots), and the mean values were used to calculate Vmax and Km. Inhibition data from the experiments that were conducted using multiple compound concentrations were represented by Dixon plots, and inhibition constant (Ki) values were calculated using non-linear regression according to the following equation: v = (VmaxS)/(Km(1 + I/Ki) + S), where I is the concentration of the compound, Ki is the inhibition constant, S is the concentration of the substrate and Km is the substrate concentration at half the maximum velocity (Vmax) of the reaction. The mechanism of the inhibition was inspected using the Lineweaver–Burk plots and the enzyme inhibition models. The data comparison was performed using the Student’s t-test and performed using IBM SPSS statistics 20 (SPSS Inc., Chicago, IL).

CYP2D6 = CYP2D6 (Homo sapiens, UniProt P10635); test: CYP2D6 inhibition in human liver microsomes (dextromethorphan O-demethylation); format: in vitro ADME; conditions: 100 μM bergenin, pooled HLMs
CYP2D6, sequence (P10635 whole entry): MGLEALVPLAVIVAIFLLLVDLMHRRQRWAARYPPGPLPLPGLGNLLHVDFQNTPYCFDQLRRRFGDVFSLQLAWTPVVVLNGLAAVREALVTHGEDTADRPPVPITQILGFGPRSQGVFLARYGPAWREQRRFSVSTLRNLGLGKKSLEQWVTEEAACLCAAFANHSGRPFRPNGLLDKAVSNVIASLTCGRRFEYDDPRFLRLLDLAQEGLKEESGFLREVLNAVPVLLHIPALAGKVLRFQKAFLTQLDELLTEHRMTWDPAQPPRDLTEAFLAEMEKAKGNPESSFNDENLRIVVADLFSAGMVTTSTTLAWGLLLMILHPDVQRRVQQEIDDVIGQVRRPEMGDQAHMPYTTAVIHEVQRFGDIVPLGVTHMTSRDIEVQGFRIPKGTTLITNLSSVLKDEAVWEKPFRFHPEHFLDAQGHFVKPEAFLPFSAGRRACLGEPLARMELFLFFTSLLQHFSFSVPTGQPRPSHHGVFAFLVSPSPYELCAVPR
Description: as §1, §2

CYP2C9 [3] = target: T4, CYP2C9 (Homo sapiens, UniProt P11712); test: CYP2C9 inhibition in human liver microsomes (diclofenac 4′-hydroxylation); format: in vitro ADME; conditions: pooled HLMs
T4 sequence (P11712 whole entry): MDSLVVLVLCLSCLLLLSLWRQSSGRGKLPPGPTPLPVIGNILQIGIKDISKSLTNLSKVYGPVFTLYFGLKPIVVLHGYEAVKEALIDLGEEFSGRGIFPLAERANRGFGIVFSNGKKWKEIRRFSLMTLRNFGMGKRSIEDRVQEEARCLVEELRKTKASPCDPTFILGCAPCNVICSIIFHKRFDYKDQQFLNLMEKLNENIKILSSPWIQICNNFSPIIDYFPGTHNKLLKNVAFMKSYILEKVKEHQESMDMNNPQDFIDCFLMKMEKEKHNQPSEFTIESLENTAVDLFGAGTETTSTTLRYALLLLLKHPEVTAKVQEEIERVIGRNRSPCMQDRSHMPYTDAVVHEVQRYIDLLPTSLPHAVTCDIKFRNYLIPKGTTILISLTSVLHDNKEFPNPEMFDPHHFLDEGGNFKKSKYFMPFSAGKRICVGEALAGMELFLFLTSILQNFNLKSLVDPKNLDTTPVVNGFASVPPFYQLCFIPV
Description: as §1, §2, §3

CYP2C19 = CYP2C19 (Homo sapiens, UniProt P33261); test: CYP2C19 inhibition in human liver microsomes (S-mephenytoin 4-hydroxylation); format: in vitro ADME; conditions: 100 μM bergenin, pooled HLMs
CYP2C19, sequence (P33261 whole entry): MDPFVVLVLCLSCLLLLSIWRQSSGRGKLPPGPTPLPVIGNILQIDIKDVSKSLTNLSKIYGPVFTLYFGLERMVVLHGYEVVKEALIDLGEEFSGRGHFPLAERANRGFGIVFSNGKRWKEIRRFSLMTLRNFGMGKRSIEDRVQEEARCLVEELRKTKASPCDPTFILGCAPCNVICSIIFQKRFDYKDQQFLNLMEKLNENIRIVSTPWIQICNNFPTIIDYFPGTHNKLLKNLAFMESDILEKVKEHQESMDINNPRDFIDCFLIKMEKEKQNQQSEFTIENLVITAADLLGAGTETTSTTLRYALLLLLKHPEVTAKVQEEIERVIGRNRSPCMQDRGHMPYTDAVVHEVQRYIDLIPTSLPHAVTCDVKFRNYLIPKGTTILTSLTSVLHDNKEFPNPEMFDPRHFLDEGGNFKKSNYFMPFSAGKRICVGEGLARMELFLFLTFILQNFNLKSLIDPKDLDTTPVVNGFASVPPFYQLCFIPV
Description: as §1, §2

CYP2C8 = target: T5, CYP2C8 (Homo sapiens, UniProt P10632); test: CYP2C8 inhibition in human liver microsomes (paclitaxel 6α-hydroxylation); format: in vitro ADME; conditions: 100 μM bergenin, pooled HLMs
T5 construct: from tissue; host or cells: pooled human liver microsomes
T5 sequence (P10632 1-490): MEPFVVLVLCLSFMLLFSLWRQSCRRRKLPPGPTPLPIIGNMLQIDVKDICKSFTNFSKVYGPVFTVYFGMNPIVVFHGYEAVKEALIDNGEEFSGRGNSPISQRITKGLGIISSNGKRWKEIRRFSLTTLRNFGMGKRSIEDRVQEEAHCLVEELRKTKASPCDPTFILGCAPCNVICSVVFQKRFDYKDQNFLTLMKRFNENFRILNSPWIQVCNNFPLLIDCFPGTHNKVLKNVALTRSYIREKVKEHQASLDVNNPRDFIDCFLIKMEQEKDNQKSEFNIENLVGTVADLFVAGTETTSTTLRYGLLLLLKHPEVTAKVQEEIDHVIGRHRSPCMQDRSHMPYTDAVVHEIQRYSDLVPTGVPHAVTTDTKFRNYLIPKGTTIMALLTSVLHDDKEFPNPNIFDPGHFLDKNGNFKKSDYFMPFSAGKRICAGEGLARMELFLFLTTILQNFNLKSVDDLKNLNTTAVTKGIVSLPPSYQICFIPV
Description: as §1, §2

CYP3A4 [4] = target: T1, CYP3A4; test: Time-dependent inhibition study in HLMs, CYP3A4; format: in vitro ADME
Description: (§4) After incubation, an aliquot (20 μL) was transferred to another incubation tube (final volume 200 μL) containing an NADPH-generating system and probe substrates whose final concentrations were approximate to Km. Then, further incubations were performed to measure the residual activity. After being incubated for different time (30 min for CYP2E1 and CYP2C9, 10 min for CYP3A4), the reactions were terminated by adding a 100 μL acetonitrile internal standard mix and then placed on ice; the corresponding metabolites were determined by HPLC.
Figure 7. […] The initial rate constant of inactivation of CYP3A4 by each concentration (Kobs) was determined through linear regression analysis of the natural logarithm of the percentage of remaining activity versus pre-incubation time (A).

CYP2E1 [5] = target: T3, CYP2E1; test: Time-dependent inhibition study in HLMs, CYP2E1; format: in vitro ADME; conditions: bergenin 20 μM, pre-incubation with HLM and NADPH for 30 min
Description: as §4

CYP2C9 [6] = target: T4, CYP2C9; test: Time-dependent inhibition study in HLMs, CYP2C9; format: in vitro ADME; conditions: bergenin 20 μM, pre-incubation with HLM and NADPH for 30 min
Description: as §4

[7] = design: method as in Pan et al. [2016]; conditions: rats, oral dose 100 mg/kg, ref Pan et al. [2016], cited from earlier work
[8] = Lineweaver–Burk plots, pooled HLMs

CYP1A2, sequence (P05177 whole entry): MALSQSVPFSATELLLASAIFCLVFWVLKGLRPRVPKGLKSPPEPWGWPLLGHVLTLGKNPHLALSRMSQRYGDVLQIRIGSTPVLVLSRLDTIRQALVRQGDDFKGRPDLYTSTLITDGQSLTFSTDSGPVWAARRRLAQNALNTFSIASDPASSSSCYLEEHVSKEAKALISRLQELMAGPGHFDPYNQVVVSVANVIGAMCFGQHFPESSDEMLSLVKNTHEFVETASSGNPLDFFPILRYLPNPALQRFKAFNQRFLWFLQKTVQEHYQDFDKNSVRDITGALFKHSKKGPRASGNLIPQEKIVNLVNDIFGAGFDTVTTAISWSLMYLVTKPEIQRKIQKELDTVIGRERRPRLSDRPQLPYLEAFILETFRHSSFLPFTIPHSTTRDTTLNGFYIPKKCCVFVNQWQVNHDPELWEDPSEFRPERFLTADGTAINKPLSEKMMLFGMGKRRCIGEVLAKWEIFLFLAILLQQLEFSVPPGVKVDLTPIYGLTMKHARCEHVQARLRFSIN

COc1c(O)cc2c(c1O)[C@@H]1O[C@H](CO)[C@@H](O)[C@H](O)[C@H]1OC2=O [bergenin, Bergenin]
Inhibition of CYP1A2 activity (CYP1A2): did not inhibit | Inhibition mode CYP3A4 (CYP3A4 [1]; [8]): non-competitive | activity at 100 μM (CYP3A4 [1]; human, pooled human liver microsomes, pH 7.4, probe testosterone (6β-hydroxylation), read-out: CYP3A4 activity, % of control activity): 11% | Inhibition of CYP2A6 activity (CYP2A6): did not inhibit | Inhibition mode CYP2E1 (CYP2E1 [2]; [8]): competitive | activity at 100 μM (CYP2E1 [2]; human, pooled human liver microsomes, pH 7.4, probe chlorzoxazone (6-hydroxylation), read-out: CYP2E1 activity, % of control activity): 12.2% | IC50 (CYP2E1 [2]; pooled HLMs, chlorzoxazone 6-hydroxylation): 22.8 µM | Ki (CYP2E1 [2]; pooled HLMs, secondary Lineweaver–Burk plot, chlorzoxazone 25–200 μM): 11.4 µM | Inhibition of CYP2D6 activity (CYP2D6): did not inhibit | Inhibition mode CYP2C9 (CYP2C9 [3]; Lineweaver–Burk plots): competitive | IC50 (CYP2C9 [3]; diclofenac 4′-hydroxylation): 15.1 µM | Ki (CYP2C9 [3]; secondary Lineweaver–Burk plot, diclofenac 2–20 μM): 8.89 µM | Inhibition of CYP2C19 activity (CYP2C19): did not inhibit | Inhibition of CYP2C8 activity (CYP2C8): did not inhibit | Time-dependent inhibition, activity of CYP3A4 (CYP3A4 [4]; bergenin 20 μM, pre-incubation with HLM and NADPH for 30 min): decreased with the incubation time | CYP3A4 inactivated each minute (CYP3A4 [4]; saturating concentration of bergenin incubated with HLM, implied by Kinact): approximately 2.5% | Time-dependent inhibition, activity of CYP2E1 (CYP2E1 [5]): not affected | Time-dependent inhibition, activity of CYP2C9 (CYP2C9 [6]): not affected | Plasma Cmax [7]: less than 300 ng/mL | Cmax ([7]; read-out: Plasma Cmax): < 900 nM
